Test results taken from publication PMC11039317, “Acidity of persulfides and its modulation by the protein environments in sulfide quinone oxidoreductase and thiosulfate sulfurtransferase” (The Journal of Biological Chemistry, 2024).

How the values were obtained:
[1] = reported value; cited from earlier work
[2] = target: T1, Human SQOR (Homo sapiens, UniProt Q9Y6N5); settings: potassium phosphate, pH 7.4, 4 °C; cited from earlier work
T1 construct: made in house

[3] = target: T1, Human SQOR; assay type: biochemical
Method: The acidity of the persulfidated SQOR was evaluated by the pH-dependence of the steady-state rates. For enzymes that catalyze reactions with one substrate, the kinetic parameter kcat/Km (specificity constant) is an apparent second-order rate constant that reports on the properties of the free enzyme and the free substrate ([32]). kcat/Km can be calculated from the kinetic parameters kcat and Km obtained from typical Michaelis–Menten analysis (Equation 1). […]
SQOR uses three substrates: H2S, a sulfur acceptor (Acc^−), and CoQ (Fig. 1A). At saturating concentrations of H2S and CoQ, the kcat/Km^Acc- represents the apparent rate constant for the reaction between the sulfur acceptor and the Cys379SSH of the bis-persulfidated SQOR, and its pH-dependency reports on the pKa of both free species. Although the pH dependence of human SQOR activity has been reported ([25]), the pH dependence of kcat/Km is unavailable. The steady-state rate of SQOR was determined by monitoring the reduction of coenzyme Q1 (CoQ1) at 278 nm at varying pH at 25 °C. […]. Therefore, in the experiments with cyanide, the reactions were started with cyanide instead of SQOR so that the contribution of SQOR with H2S alone could be subtracted.
In experiments with sulfite, steady-state time courses with varying concentrations of sulfite (0.01–8 mM) were recorded, and linear functions were fitted to the first 15 to 40 s following SQOR addition (Fig. 3A). The slope before SQOR addition was subtracted to correct for the background nonenzymatic reduction of CoQ1, which was minimal. From the hyperbolic fit of the activity versus sulfite concentration plot (Fig. 3B), the kinetic parameters kcat^sulfite and Km^sulfite were obtained, and the kcat/Km^sulfite for each pH were calculated. As expected, when the kcat/Km^sulfite were plotted against pH, a bell-shaped profile was obtained (Fig. 3C), consistent with a reaction between a deprotonated species and a protonated one. An equation with two pKa was fitted to the data (Equation 3), assuming that deprotonated sulfite and protonated SQOR persulfide were the reacting species. […]. […]
The steady-state rates were obtained from linear fits to the data during the first 4 to 20 s following cyanide addition, and the slopes before cyanide addition were subtracted. The kcat/Km^cyanide at each pH was calculated according to Equation 2 using the enzyme (50 nM) and cyanide (90 μM) initial concentrations. […]
Human SQOR was expressed and purified as reported previously ([24], [25]). SQOR concentration was determined from the FAD absorbance at 450 nm, using ε = 11,500 M^−1 cm^−1 ([25]). […]
The activity of SQOR was measured at different pHs in a temperature-controlled spectrophotometer (Shimadzu UV-2600 or UV-1900i). […]

[4] = target: TST persulfide (Homo sapiens, UniProt Q16762)
Method: Stopped-flow kinetic studies were performed on the isolated half-reactions between TST persulfide and sulfur acceptors. Preformed stocks of TST persulfide were used to monitor its reaction with sulfite or cyanide at varying pH at 25 °C. The reactions were followed by the changes in the intrinsic fluorescence of TST, taking advantage of the higher fluorescence in the thiol versus the persulfidated state, as reported for the bovine enzyme ([37]).
TST persulfide was exposed to a pseudo-first order excess of sulfite (15 and 75 μM) or cyanide (25 and 100 μM), and the increases in the intrinsic fluorescence were recorded (Fig. 5, A and B). Single exponential functions were fitted to the time courses. The kobs values were divided by the sulfite or cyanide concentration and the second order rate constants, kpH, were determined at each pH.
The persulfidated TST was diluted in ultrapure water in one of the stopped-flow syringes (1.6–2.0 μM, ∼ 2 mM Tris) and mixed with sulfite (30 and 150 μM) or cyanide (50 and 200 μM) prepared in the other syringe in ACES/Tris/ethanolamine buffer 2× in a pH range of 5.60 to 10.38, at 25 °C. The final concentrations were halved as a consequence of the stopped-flow mixing. The increase in intrinsic fluorescence due to thiol formation was recorded during 0.025 to 10 s depending on the time course. The final pH of the reaction mixtures was measured.

[5] = target: Human TST (Homo sapiens, UniProt Q16762); settings: pH 7.03
Method: The activity of TST was measured at different pH values and 25 °C by the steady-state rate of thiocyanate formation. […] After 30 to 90 s, the reactions were stopped by removing 305 μl aliquots and mixing them with 20 μl of 38% formaldehyde (Biopack) and 25 μl of 140 mM FeCl3·6H2O (Sigma-Aldrich) diluted in 32.5% HNO3 (Dorwil). Absorbances at 460 nm (Varian Cary 60, Agilent) were recorded immediately and interpolated into a 0 to 30 μM thiocyanate calibration curve. The thiocyanate standards were prepared daily in ACES/Tris/ethanolamine buffer, pH 7.8, and underwent the same procedures as the samples ([1]).
After 220 s, 5 μl of 5 M NaOH were added, changing the pH to 8.5. The concentrations of thiocyanate produced at 252 and 310 s were measured as described.

[6] = system: human 3-mercaptopyruvate sulfurtransferase; design: method as in earlier work; settings: cited from earlier work

T1 sequence (Q9Y6N5 whole entry): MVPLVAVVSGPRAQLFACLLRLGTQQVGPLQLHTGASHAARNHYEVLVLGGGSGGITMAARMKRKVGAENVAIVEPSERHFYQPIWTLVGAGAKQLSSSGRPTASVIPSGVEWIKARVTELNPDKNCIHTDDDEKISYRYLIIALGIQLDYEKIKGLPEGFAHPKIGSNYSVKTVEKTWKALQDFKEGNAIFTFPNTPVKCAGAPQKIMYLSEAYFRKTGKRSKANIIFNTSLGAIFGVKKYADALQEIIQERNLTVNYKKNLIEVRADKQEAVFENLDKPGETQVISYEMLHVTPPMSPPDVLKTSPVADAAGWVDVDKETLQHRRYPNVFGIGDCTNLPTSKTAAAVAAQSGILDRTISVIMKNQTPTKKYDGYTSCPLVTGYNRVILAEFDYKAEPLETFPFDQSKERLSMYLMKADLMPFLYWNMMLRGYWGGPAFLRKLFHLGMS
Sequence of Human TST (Q16762 whole entry): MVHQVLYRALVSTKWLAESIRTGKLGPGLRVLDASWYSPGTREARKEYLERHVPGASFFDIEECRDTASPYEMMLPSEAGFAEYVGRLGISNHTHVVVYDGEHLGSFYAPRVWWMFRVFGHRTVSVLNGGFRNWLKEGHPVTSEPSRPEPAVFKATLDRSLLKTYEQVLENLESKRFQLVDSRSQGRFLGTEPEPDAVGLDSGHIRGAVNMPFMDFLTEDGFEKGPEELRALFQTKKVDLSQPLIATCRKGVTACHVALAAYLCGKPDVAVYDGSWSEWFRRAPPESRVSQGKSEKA
Sequence of TST persulfide (Q16762 whole entry): as above

For `O=S(O)O` [sulfite], the pKa [1] is given as 6.91, the “second-order rate constant between the enzyme CT complex and sulfite” value [2] is given as 390000 M⁻¹ s⁻¹ and the Km ([3]; acetic/MES/Tris buffer containing 120 mM NaCl, pH 7.17, read-out: apparent Km^sulfite) is given as 2400 ± 200 µM. For the same molecule, the “pKa of the deprotonated species (sulfite)” value ([3]; fit of kcat/Km^sulfite of SQOR versus pH, 25 °C) was 6.8 ± 0.5 and the “pKa of the deprotonated species (sulfite)” value [4] was 6.89 ± 0.09.

B1: TST (protein, UniProt Q16762 2-297, looked up)
Thiosulfate sulfurtransferase: VHQVLYRALVSTKWLAESIRTGKLGPGLRVLDASWYSPGTREARKEYLERHVPGASFFDIEECRDTASPYEMMLPSEAGFAEYVGRLGISNHTHVVVYDGEHLGSFYAPRVWWMFRVFGHRTVSVLNGGFRNWLKEGHPVTSEPSRPEPAVFKATLDRSLLKTYEQVLENLESKRFQLVDSRSQGRFLGTEPEPDAVGLDSGHIRGAVNMPFMDFLTEDGFEKGPEELRALFQTKKVDLSQPLIATCRKGVTACHVALAAYLCGKPDVAVYDGSWSEWFRRAPPESRVSQGKSEKA
In the case of B1, the “apparent pKa of steady-state activity” value [5] is reported as 8.47 ± 0.06.

B2: human 3-mercaptopyruvate sulfurtransferase: sulfurtransferase enzyme, literature thiol pKa (protein, UniProt P25325 2-297, looked up)
3-mercaptopyruvate …: ASPQLCRALVSAQWVAEALRAPRAGQPLQLLDASWYLPKLGRDARREFEERHIPGAAFFDIDQCSDRTSPYDHMLPGAEHFAEYAGRLGVGAATHVVIYDASDQGLYSAPRVWWMFRAFGHHAVSLLDGGLRHWLRQNLPLSSGKSQPAPAEFRAQLDPAFIKTYEDIKENLESRRFQVVDSRATGRFRGTEPEPRDGIEPGHIPGTVNIPFTDFLSQEGLEKSPEEIRHLFQEKKVDLSKPLVATCGSGVTACHVALGAYLCGKPDVPIYDGSWVEWYMRARPEDVISEGRGKTH
For B2, the “pKa of the thiol” value [6] is listed as 5.2.
